Values of other authors in patent US20190015339A1, “PHARMACEUTICAL COMBINATION FORMULATION” (SHIN POONG PHARMACEUTICAL CO., LTD., priority 2015, published 2019).
Read-outs that look alike come from different tables or passages of the source.

absolute bioavailability (used as a solution): about 40%
absolute bioavailability (used as a tablet formulation): about 15%
SMILES: CCOc1nc2cccc(C(=O)OC(C)OC(=O)OC3CCCCC3)c2n1Cc1ccc(-c2ccccc2-c2nnn[nH]2)cc1 (centres unmarked) [candesartan cilexetil]
